From patent US20070004689A1, “Antiangiogenic agents” (priority 2004, published 2007)

Each compound was assayed on CYP450 (CYP1A2, CYP2C9, CYP2C19, CYP2D6, CYP3A) in pooled human liver microsomes (assay: CYP450 inhibition using human microsomes). Conditions: test compound 0.034-25 μM, CYP inhibited.
Format: in vitro ADME
Protocol: Determination of CYP450 inhibition and IC50 value using human microsomes: CYP450 inhibition provides a measure of potential issues with co-medication, since CYP450 enzymes metabolize many drugs. Microsomal incubation mixtures (500 μL) were prepared in HEPES buffer (50 mM HEPES, 15 mM MgCl2, 0.1 mM EDTA, pH 7.6) containing a NADPH regenerating system (1 mM NADPH, 10 mM glucose-6-phosphate 1 IU glucose-6-phosphate dehydrogenase), pooled human liver microsomes (0.5 mg protein), and 5 μL of 7 concentrations of compounds and positive control inhibitors (see Tables IV, V and VI).
After addition of the compounds or positive control inhibitors, the samples were pre-incubated at 37° C. for approximately 5 minutes. Subsequently, the P450 substrate cocktail were added to the reaction mixture and incubated for 20 minutes at 37° C. Reactions were terminated by the addition of 250 μL of methanol containing 5 μM dextrorphan as an internal standard (IS). The samples were vortexed briefly, placed on ice, and then centrifuged at approximately 12000×g for 5 minutes to remove debris. The supernatant from each sample was then transferred to a separate vial for LC-MS/MS analysis. Analysis to determine the amount of substrate specific metabolites (relative to the control samples) was carried out using reverse phase HPLC with tandem mass spectrometric detection (LC-MS/MS). Analysis of the data was carried out using Micromass MetaboLynx and QuanLynx software Versions 3.5 to determine the amount of the specific substrate metabolites produced in each sample (relative to the control samples).

SMILES	CYP450 inhib.
COc1cc2c(cc1C(N)=O)CC[C@@H]1[C@@H]2CC[C@]2(C)C(=O)CC[C@@H]12 [Compound 54, 2-methoxy-17-oxoestra-1,3,5(10)-triene-3-carboxamide]	None
COc1cc2c(cc1C(N)=O)CC[C@@H]1[C@@H]2CC[C@]2(C)CCC[C@@H]12 [Compound 57, (2-Methoxyestra-1,3,5(10)-trien-3-yl)-3-carboxamide]	None
C=C1CC[C@H]2[C@@H]3CCc4cc(C(N)=O)c(OC)cc4[C@H]3CC[C@]12C [Compound 60, 2-Methoxy-17-methyleneestra-1,3,5(10)-triene-3-carboxamide]	None
COc1cc2c(cc1C(N)=O)CC[C@@H]1[C@@H]2CC[C@]2(C)C=CC[C@@H]12 [Compound 63, 3-carboxamide-2-methoxy-1,3,5(10)16-estratetraene]	None
